From patent US20260216141A1, “NECROSIS INHIBITOR” (LINKGEVITY LIMITED, priority 2023, published 2026)
“Also recorded” adds a separate entry of the source. Read-outs that look alike come from different tables or passages of the source.

Legend:
[1] = test system: Hepg2s spheroids; format: cell-based; settings: for necrotic core formation / cell death necrosis relative to control: hypoxic and nutrient deprivation stress, DRAQ7, up to day 7
Method: Media changes were on alternative days. […] DMSO controls were added on each plate.
In some of the following Examples, human 3D cell culture was employed using liver Hepg2 cells. 3D cell culture is known to accurately replicate a cell's native environment. During embryonic development, cells aggregate and self-assemble into complex multi-cellular structures. The same aggregation process can likewise occur in in vitro culture systems if cell-cell cohesion is favoured over cell attachment to a substrate. The resulting 3D cell culture aggregates are known as spheroids. […] A standard method of spheroid formation in U-bottom low adhesion plates was used in the Examples herein.
This is because, as the spheroids grow, only the peripheral cells obtain oxygen and nutrients from the cell culture medium. The inner cells die from cell death necrosis, with the formation of large necrotic cores (observable though use of standard live dead stains). Thus, necrotic core formation represents a naturally occurring hypoxic and nutrient stress. This resembles multiple forms of shock in humans where blood flow carrying nutrients and oxygen is disrupted to certain cells, tissues and/or organs.

[2] = known in the art; cited from earlier work
[3] = test system: human intestinal fibroblast primary cell spheroids; test: Human intestinal fibroblast primary cell spheroids, hydrogen peroxide oxidative stress, Calcein AM/Ethidium homodimer-1 stain; format: cell-based; settings: hydrogen peroxide 800 μM for 6 hrs; preventative; Dantrolene 100 μM, retinoic acid 10, 20 or 40 μM, Nifedipine 10 μM
Method: Media changes were on alternative days. […] Drug treatment was done overnight prior stress. […] Two repeats of all conditions were performed. Each repeat used 31 organoids per condition. […] DMSO controls were assessed in parallel on each plate.
Thus far, the Examples have focused on hypoxic and nutrient deprivation stressors. To test other stressors, this Example uses an oxidative stress/toxin stress model, where human intestinal fibroblast (HIF) primary cell spheroids were exposed to hydrogen peroxide. The standard viability Calcein AM/Ethidium homodimer-1 staining was used as a marker of cell death. Following 800 μM hydrogen peroxide exposure for 6 hrs, just over 25% of cells were dead in the control (i.e. relative to Triton X-100 that kills all cells).

| Compound | necrotic core formation / cell death necrosis relative to control ([1]; Hepg2s spheroids) | also measured |
| --- | --- | --- |
| CCCCCCCO [heptanol] | No significant necrosis prevention and/or treatment | – |
| ryanodine | no significant difference from the control; also recorded: no significant difference to control | – |
| CC1(C)[C@@H](OC(=O)CCC(=O)O)CC[C@]2(C)[C@H]3C(=O)C=C4[C@@H]5C[C@@](C)(C(=O)O)CC[C@]5(C)CC[C@@]4(C)[C@]3(C)CC[C@@H]12 [carbenoxolone] | No significant necrosis prevention and/or treatment | – |
| CCCCCCCC/C=C\CCCCCCCC(=O)O [oleic acid] | no significant difference from the control; also recorded: No significant necrosis prevention and/or treatment; also recorded: no significant effect on cell necrosis relative to control | – |
| OC(c1cc(C(F)(F)F)nc2c(C(F)(F)F)cccc12)C1CCCCN1 (stereo not shown) [mefloquine] | No significant necrosis prevention and/or treatment | – |
| Cc1ccc(Cl)c(Nc2ccccc2C(=O)O)c1Cl [meclofenamic acid] | No significant necrosis prevention and/or treatment | – |
| N.N.N.N.N.N.N.N.N.N.N.N.N.N.[Cl-].[Cl-].[Cl-].[Cl-].[Cl-].[Cl-].[O-2].[O-2].[Ru+3].[Ru+3].[Ru+4] [ruthenium red] | no significant difference from the controls; also recorded: no significant effect on level of cell death necrosis | – |
| CC(=O)OCOC(=O)CN(CC(=O)OCOC(C)=O)c1ccccc1OCCOc1ccccc1N(CC(=O)OCOC(C)=O)CC(=O)OCOC(C)=O [BAPTA-AM, 2-[N-[2-(acetyloxymethoxy)-2-oxoethyl]-2-[2-[2-[bis [2-(acetyloxymethoxy)-2-oxoethyl]amino]phenoxy]ethoxy]anilino]acetic acid acetyloxymethyl ester] | – | toxicity at earlier time points ([1]; time points earlier than day 7): some milder toxicity in some trials; necrosis suppression ([1]; x8 dosage, 25 μM, day 7): significant necrosis suppression; cell culture dosages considered maximum dosages which result in minimum toxicity [2]: 1 to 3 µM |
| O=C(O)c1ccccc1Nc1cccc(C(F)(F)F)c1 [flufenamic acid] | No significant necrosis prevention and/or treatment | – |
| CC1(C)[C@@H](O)CC[C@]2(C)[C@H]3C(=O)C=C4[C@@H]5C[C@@](C)(C(=O)O)CC[C@]5(C)CC[C@@]4(C)[C@]3(C)CC[C@@H]12 [glycyrrhetinic acid] | No significant necrosis prevention and/or treatment | – |
| COc1ccc([C@@H]2N[C@H](C(=O)O)Cc3c2[nH]c2ccccc32)cc1CN1CCN(c2ccccc2F)CC1 (relative stereo) [cis-Ned 19] | no significant difference from the control; also recorded: no significant effect on level of cell death necrosis | – |
| COc1ccc([C@H]2N[C@H](C(=O)O)Cc3c2[nH]c2ccccc32)cc1CN1CCN(c2ccccc2F)CC1 (relative stereo) [trans-Ned 19] | no significant difference from the control; also recorded: no significant effect on level of cell death necrosis | – |
| CCCCCCCC/C=C\CCCCCCCC(N)=O [oleamide] | No significant necrosis prevention and/or treatment | – |
| O=C1CN(/N=C/c2ccc(-c3ccc([N+](=O)[O-])cc3)o2)C(O)=N1 [Dantrolene] | no significant difference from the control; also recorded: no significant effect on necrosis inhibition; also recorded: no significant effect on cell necrosis relative to control | necrotic core formation / cell death necrosis relative to control ([1]; Hepg2s spheroids, listed as dantrolene): no significant difference to control; necrosis following oxidative stress relative to control [3]: either no significant difference or a worse effect to control |
| CCN(CC)CCOC(=O)c1ccc(N)cc1 [procaine] | no significant difference from the controls; also recorded: no significant effect on level of cell death necrosis | – |
| O=C(O)CN(CCN(CC(=O)O)CC(=O)O)CCN(CC(=O)O)CC(=O)O [DTPA, diethylenetriaminepentaacetic acid] | – | toxicity at earlier time points [1]: some mild, but not statistically significant, toxicity; dosage needed to suppress necrosis ([1]; Hepg2s spheroids, day 7): 4000 µM; cell culture dosages considered maximum dosages which result in minimum toxicity [2]: around 50 μM |
| O=C(O)c1cccnc1Nc1cccc(C(F)(F)F)c1 [niflumic acid] | No significant necrosis prevention and/or treatment | – |
| FC(F)(F)C(Cl)Br (stereo not shown) [halothane] | No significant necrosis prevention and/or treatment | – |
| CCCCC/C=C\C/C=C\CCCCCCCC(=O)O [linoleic acid] | No significant necrosis prevention and/or treatment | level of cell death / toxicity in isolation relative to control [1]: greater toxicity relative to control |
| C=C[C@H]1C[N@@]2CC[C@H]1C[C@@H]2[C@@H](O)c1ccnc2ccc(OC)cc12 [quinidine] | No significant necrosis prevention and/or treatment | – |
| CCCCC/C=C\C/C=C\C/C=C\C/C=C\CCCC(=O)O [arachidonic acid] | No significant necrosis prevention and/or treatment | – |
| C=C[C@H]1C[N@@]2CC[C@H]1C[C@H]2[C@H](O)c1ccnc2ccc(OC)cc12 [quinine] | No significant necrosis prevention and/or treatment | – |
| CCCCCCCCO [octanol] | No significant necrosis prevention and/or treatment | level of cell death / toxicity in isolation relative to control ([1]; compound in isolation, most trials): greater toxicity relative to control |
